Results reported in paper PMC7912796, “Design, Synthesis, Anticancer Activity, and Solid Lipid Nanoparticle Formulation of Indole- and Benzimidazole-Based Compounds as Pro-Apoptotic Agents Targeting Bcl-2 Protein” (Pharmaceuticals, 2021).

Key:
[1] = test system: MDA-MB-231/breast cancer cells; experiment: Morphological assessment; type: cell-based, human; conditions: 0.1-100 µM, 48 h, phase-contrast microscope
Protocol: The impact of 8b on cancerous cellular morphology was evaluated over different concentrations following 48 h exposure time. In MDA-MB-231/breast cancer cells, normal membrane integrity and control group nucleus morphology was depicted for cells within vehicle negative control group (Figure 4A). […] At 100 µM concentration, the cell number became highly declined and great loss of cellular polyhedral shape was observed as cells acquired the tentacled spindle-shaped morphology (Figure 4E). These morphological changes were more drastic with 8b as compared to 5-FU for similar concentrations (100 µM) (Figure 4F).
The impact of this tested final compounds on the morphology of treated MDA-MB-231/breast cancer cell line was investigated, through planting cells within 6-well plates and subsequently incubated with 0.1, 1, 10, 100 µM of 8b […]. Variations within the cells’ morphology were identified via Olympus®-CKX53 Inverted Metallurgical light microscope (Olympus^TM, Center Valley, PA, USA), snapped by Olympus® Digital Camera, and analyzed by OLYMPUS® Stream image analysis software.

A549/lung adenocarcinoma = experiment: Morphological assessment; type: cell-based, human; conditions: 0.1-100 µM (5-FU 100 µM), 48 h, phase-contrast microscope
class-III β-tubulin = experiment: ELISA protein level; type: cell-based, human; conditions: 48 h
Protocol: Dissection of the compound’s proapoptotic activity was proceeded through gene expression analysis for key genes, controlling apoptosis pathway, as well as protein level determination. Following 8b treatment for 48 h, alterations within MDA-MB-231/breast cancer cell expression of Bcl-2, Bax, caspase-3, -8, and -9 genes, as well as cytochrome c and class-III β-tubulin proteins levels were determined using real-time polymerase chain reaction (RT-PCR) or ELISA technique, respectively. Typically, Bcl-2, Bax, caspases, and cytochrome c proteins contributes within the regulation of apoptotic signaling. Acting as apoptotic activator (Bax) or inhibitor (Bcl-2), the Bcl-2 family proteins play their significant role in apoptosis. The caspases family are cysteine proteases being classified as either executioners; caspase-3, -6, or -7 or initiators; caspase-8 and -9 [36]. Regrading caspase-8, its activation is proceeded through extrinsic death-receptor dependent apoptotic pathway, while, caspase-9 activation is within the event of intrinsic mitochondrial cytochrome c leakage. Additionally, participation of activated caspase-3 is to be essential for caspase-8 activation. […]

[2] = test system: MDA-MB-231/breast cancer cell line; experiment: DNA fragmentation assay; type: cell-based, human; conditions: 13 µM, 48 h and 72 h, agarose gel ladder
Protocol: In order to delineate the mechanistic aspects of MDA-MB-231/breast cancer cell death mediated by 8b, the DNA fragmentation assay was conducted as being highly characteristic for apoptosis. […] A typical ladder pattern of internucleosomal fragmentation was observed from cell homogenates within both incubation periods (Figure 8). Such findings further confirm the significant activity of 8b as a potent inducer of apoptosis.
DNA isolation was performed through planting MDA-MB-231/breast cells at 0.16x10^6 density, prior to incubation at 37 °C/humidified 5% CO2 overnight. Following 48 h exposure time, cells were harvested, washed and lysed via DNA-extraction buffer at 37 °C overnight. The lysate was incubated after that with 100 μg/mL […] (Cat.#: 9097.1; Carl-Roth^TM, Karlsruhe, Germany) at 37 °C for 2 h, which was followed by three extraction processes using phenol:CHCl3 (1:1 v/v) (Bioflux^TM, Selangor, Malaysia). A consequent re-extraction was done using CHCl3 and then the organic solvent was centrifuged for 5 min at 12,000 rpm within 4 °C conditions. Extracted DNA was precipitated via ice-cold 3 M sodium acetate and absolute ethanol for 1 h at –20 °C, which was then proceeded through centrifugation (15 min—at 12,000 rpm—4 °C). […]

[3] = In-vitro drug release, dialysis method; type: physicochemical; conditions: over 48 h, PBS pH 7.4, 37 °C, dialysis bag
Protocol: The in-vitro drug-release behavior of SLNs was determined through the dialysis method. The release of drug from SLNs was done using phosphate buffer saline (pH 7.4) as dissolution medium. An accurate amount of SLNs (equivalent to 5 mg drug) was taken and placed within the dialysis bag (MWCO: 12 kDa). The dialysis bag was closed from both ends and placed within 75 mL Phosphate Buffer Saline (pH 7.4) as dissolution medium. The analysis was conducted while maintaining the dissolution medium at 37 ± 1 °C and being stirred via magnetic stirrer at 100 rpm. Dissolution medium samples (2 mL) were withdrawn at pre-determined time intervals (0.5, 1, 2, 4, 8, 12, 24 and 48 h). Equal volumes of fresh dissolution medium were added to replace the withdrawn volumes for keeping sink condition. The experiment was done in triplicate and the amount of drug release was measured following the same procedure as in the entrapment efficiency section.

[4] = test system: MDA-MB-231/breast cancer cell line; experiment: Cell cycle analysis, propidium iodide flow cytometry; type: cell-based, human; conditions: 13 µM, 48 h
Description: Using flow cytometry, apoptosis rate analysis was proceeded through staining the cell surface-translocating phosphatidylserine with Annexin-V fluorescent conjugate, the calcium-dependent phospholipid binding protein [32]. However, cell cycle analysis was achieved using propidium iodine fluorescent dye to stoichiometrically stain cell DNA contents allowing quantitation and identification of all cell phase rates; G0-G1, S, G2/M, and pre-G1 [33, 34]. […] For identifying the mode of cell death promoted by 8b within MDA-MB-231/breast cancer cells, apoptosis rate analysis was performed following 48 h exposure time. […] Moreover, the average proportion of Annexin-V stained positive cells (total apoptotic cells) elevated from 1.72% within untreated cells to 18.93% in treated ones (p < 0.001). […] The above provided findings are supported by the previous cell cycle analysis confirming the potentiality of 8b as promising anticancer agent.
Apoptotic assay and cell cycle analysis were proceeded according to previous literatures. […] Following incubation, MDA-MB-231 cells were trypsinized, harvested, and fixed according to information cited within Annexin® V-FITC Detection Kit (Cat.#: K101-25, BioVision^TM, Milpitas, CA, USA), for quantifying cell’s DNA contents being treated with 8b relative to control sample using propidium iodide stain (Cat.#: ab139418; Abcam^TM, Cambridge, MA, USA). […]

In the case of CCCc1ccc(-c2nn(-c3ccccc3)cc2C=NNC(=O)c2cc3ccccc3[nH]2)cc1 [Compound 8b, N′-((1-phenyl-3-(4-propylphenyl)-1H-pyrazol-4-yl)methylene)-1H-indole-2-carbohydrazide], the cell morphology alterations [1] is reported as “significant cell morphology alteration, intercellular space dilatation, and cellular shrinkage”, the cell morphology alterations (A549/lung adenocarcinoma) is reported as “Comparable cell morphology changes” and the “class-III β-tubulin level” value (class-III β-tubulin; 13 μM, MDA-MB-231, control 0.73 ng/mL) is reported as 0.23 ng/mL. The inhibition at 13 µM (class-III β-tubulin; Homo sapiens, MDA-MB-231, vs control) was 68.4%, the DNA fragmentation [2] was “Significant DNA fragmentation” and the “total released amount of drug” value [3] was 21.48 ± 1.17%. For the same compound, the “cell population at pre-G1 stage” value [4] was 1.72% and the “cell population at G2/M stage” value ([4]; untreated 6.15%) was 25.32%.
